Data: US5959130A, “Castor based benzoate esters” (Finetex, Inc., priority 1997, dated 1999)

What was measured:
[1] = Gardnor scale
[2] = sunscreen solubility: Benzophenone-3, Table IV A; format: physicochemical
Description: (§1) These two sunscreens are difficult to dissolve and keep in solution for use in sunscreen formulations for optimal SPF (sun-protection factors). Higher solvency for a sunscreen ingredient is desirable as it allows higher concentrations of the sunscreen active ingredient in a formulation. This advantageously raises the SPF ratings for the formulation. The liquid organic sunscreens that are commonly used are octyl-methoxy cinnamate (OMC) and octyl salicylate (OS).
(§2) Solubility/Solvency Tables IVA and IVB show the solubility and concentrations of the sunscreen ingredient in the novel esters of the invention compared to their precursor raw materials (non-benzoate esters).

[3] = sunscreen solubility: PARSOL 1789, Table IV B; format: physicochemical
Description: as §1, §2

[4] = organoleptic evaluation of tactile characteristics on the forearm, Table VII; format: in vivo, individuals; conditions: rating, 1 = Worst 5 = Best
Procedure: The tactile characteristics of the novel benzoate esters of the invention were determined by applying the appropriate material, neat or as a dilution with another emollient ester, lanolin or […]. The properties were evaluated organoleptically after application to the interior surface of the forearm.

[5] = physical properties of benzoate esters compared to precursors, Table II; format: physicochemical; conditions: for VISCOSITY: Brookfield Viscometer, Spindle # 1, 10 rpm
Description: Absence of odor is an important factor in consumer acceptance of cosmetic and toiletry products.

[6] = Hagman readings (particle size), titanium dioxide dispersion, Table VI A; format: physicochemical; conditions: for Hagman reading (particle size): TiO2 50%
Procedure: (§3) The novel benzoate esters of the invention were tested for pigment and dye dispersing efficacy. Color pastes were prepared by dispersing dry pigment into the oil phase while hand stirring and then passing each mixture through a three roll mill six times, collecting a 16 oz. sample after each pass. The samples collected were subjected to particle size measurements.

[7] = viscosity readings of titanium dioxide dispersions, Table VI B; format: physicochemical; conditions: for Viscosity reading of dispersion: Brookfield LVT-D @ 12 RPM, TiO2 50%
[8] = Hagman readings (particle size), Red No. 6 Barium Lake dispersion, Table VI A; format: physicochemical; conditions: Red No. 6 Barium Lake 35%
Procedure: as §3

[9] = Hagman readings (particle size), Red No. 21 dispersion, Table VI A; format: physicochemical; conditions: Red No. 21 35%
Procedure: as §3

[10] = viscosity readings of Red No. 21 dispersions, Table VI B; format: physicochemical; conditions: for Viscosity reading of dispersion: Brookfield LVT-D @ 12 RPM, Red No. 21 35%
[11] = in specific ratios
Description: The aforedescribed benzoate esters have unique properties that make them particularly suited for use as emollient carriers for cosmetic ingredients. […] Parsol® is a registered trademark of Givaudan Corp. of Clifon, N.J.

[12] = 23° C., 10 gms sunscreen in 100 gms mixture
[13] = 30° C., 10 gms sunscreen in 100 gms mixture
[14] = 30° C., 15 gms sunscreen in 100 gms mixture
[15] = 23° C., 15 gms sunscreen in 100 gms mixture

CCCCCCC(CCCCCCCCCCC(=O)OCC(COC(=O)CCCCCCCCCCC(CCCCCC)OC(=O)c1ccccc1)OC(=O)CCCCCCCCCCC(CCCCCC)OC(=O)c1ccccc1)OC(=O)c1ccccc1 (stereo not drawn) [Example 6, Castor Wax MP-80 Benzoate]
Color [1]: 3

CCCCCCCCCCCCCCCCOC(=O)CCCCCCCC=CCC(CCCCCC)OC(=O)c1ccccc1 (stereo not drawn) [Example 11, Benzoate Ester of Cetyl Ricinoleate]
Color [1]: 4

CCCCCCCCCCCCCCCCOC(=O)CCCCCCCC=CCC(CCCCCC)OC(=O)c1ccccc1 (stereo not drawn) [Example 9, Benzoate Ester of Cetyl Ricinoleate]
Color [1]: 4

CCCCCCC(CCCCCCCCCCC(=O)OCC(COC(=O)CCCCCCCCCCC(CCCCCC)OC(=O)c1ccccc1)OC(=O)CCCCCCCCCCC(CCCCCC)OC(=O)c1ccccc1)OC(=O)c1ccccc1 (stereo not drawn) [Example 7, Castor Wax MP-80 Benzoate]
Color [1]: 3

CCCCCCCCCCCCCCCCOC(=O)CCCCCCCC=CCC(CCCCCC)OC(=O)c1ccccc1 (stereo not drawn) [Example 10, Benzoate Ester of Cetyl Ricinoleate]
Color [1]: 4

CCCCCCC(O)CCCCCCCCCCC(=O)OCC(CC)CCCC (stereo not drawn) [OHS, octyl hydroxystearate, reference compound]
Sunscreen solubility (Benzophenone-3) [2, 12]: + | Sunscreen solubility (Benzophenone-3) [2, 13]: + | Sunscreen solubility (Benzophenone-3) [2, 14]: + | Sunscreen solubility (Parsol 1789) [3, 12]: + | Sunscreen solubility (Parsol 1789) [3, 13]: + | Sunscreen solubility (Parsol 1789) [3, 14]: +

CCCCCCC(CCCCCCCCCCC(=O)OCC(COC(=O)CCCCCCCCCCC(CCCCCC)OC(=O)c1ccccc1)OC(=O)CCCCCCCCCCC(CCCCCC)OC(=O)c1ccccc1)OC(=O)c1ccccc1 (stereo not drawn) [BHCO, Benzoic acid ester of glyceryl-trihydroxy stearate]
GREASINESS/OILINESS [4]: 4 | OVERALL TACTILITY [4]: 3 | SPREADABILITY [4]: 3 | TACK [4]: 3

CCCCCCC(CCCCCCCCCCC(=O)OCC(CC)CCCC)OC(=O)c1ccccc1 (stereo not drawn) [BOHS, benzoic acid ester of 2 ethyl hexyl 12-hydroxy stearate]
S.G. (specific gravity) ([5]; 25° C.): 0.928 | TITER ([5]; 25° C.): clear | VISCOSITY [5]: 110 cps | Sunscreen solubility (Benzophenone-3) [2, 12]: + | Sunscreen solubility (Benzophenone-3) [2, 15]: + | Sunscreen solubility (Benzophenone-3) [2, 13]: + | Sunscreen solubility (Benzophenone-3) [2, 14]: + | Sunscreen solubility (Parsol 1789) [3, 12]: + | Sunscreen solubility (Parsol 1789) [3, 15]: + | Sunscreen solubility (Parsol 1789) [3, 13]: + | Sunscreen solubility (Parsol 1789) [3, 14]: + | Hagman reading (particle size) ([6]; pass 1): ≤ 20 μm | Hagman reading (particle size) ([6]; pass 2): ≤ 14 μm | Hagman reading (particle size) ([6]; pass 3): ≤ 14 μm | Hagman reading (particle size) ([6]; pass 4): ≤ 10 μm | Hagman reading (particle size) ([6]; pass 5): ≤ 9 μm | Hagman reading (particle size) ([6]; pass 6): ≤ 8 μm | viscosity of TiO2 dispersions (in words) [7]: much lower viscosity | Viscosity reading of dispersion ([7]; pass 1): 1170 cps | Viscosity reading of dispersion ([7]; pass 2): 1170 cps | Viscosity reading of dispersion ([7]; pass 3): 1326 cps | Viscosity reading of dispersion ([7]; pass 4): 1326 cps | Viscosity reading of dispersion ([7]; pass 5): 1326 cps | Viscosity reading of dispersion ([7]; pass 6): 1326 cps | GREASINESS/OILINESS [4]: 4 | OVERALL TACTILITY [4]: 3 | SPREADABILITY [4]: 4 | TACK [4]: 3

CCCCCCC(CC=CCCCCCCCC(=O)OCC(COC(=O)CCCCCCCC=CCC(CCCCCC)OC(=O)c1ccccc1)OC(=O)CCCCCCCC=CCC(CCCCCC)OC(=O)c1ccccc1)OC(=O)c1ccccc1 (stereo not drawn) [BCO, Benzoic acid ester of glyceryl tri-ricinoleate]
S.G. (specific gravity) ([5]; 25° C.): 0.982 | VISCOSITY [5]: 937 cps | Sunscreen solubility (Benzophenone-3) [2, 12]: + | Sunscreen solubility (Benzophenone-3) [2, 15]: + | Sunscreen solubility (Benzophenone-3) [2, 13]: + | Sunscreen solubility (Benzophenone-3) [2, 14]: + | Sunscreen solubility (Parsol 1789) [3, 12]: + | Sunscreen solubility (Parsol 1789) ([3]; 30° C., 5 gms sunscreen in 100 gms mixture): + | Sunscreen solubility (Parsol 1789) [3, 13]: + | Sunscreen solubility (Parsol 1789) [3, 14]: + | Hagman reading (particle size) ([6]; pass 1): ≤ 30 μm | Hagman reading (particle size) ([6]; pass 2): ≤ 26 μm | Hagman reading (particle size) ([6]; pass 3): ≤ 20 μm | Hagman reading (particle size) ([6]; pass 4): ≤ 10 μm | Hagman reading (particle size) ([6]; pass 5): ≤ 10 μm | Hagman reading (particle size) ([6]; pass 6): ≤ 8 μm | Hagman reading (particle size) ([8]; pass 1): ≤ 49 μm | Hagman reading (particle size) ([8]; pass 2): ≤ 45 μm | Hagman reading (particle size) ([8]; pass 3): ≤ 42 μm | Hagman reading (particle size) ([8]; pass 4): ≤ 40 μm | Hagman reading (particle size) ([8]; pass 5): ≤ 36 μm | Hagman reading (particle size) ([8]; pass 6): ≤ 33 μm | Hagman reading (particle size) ([9]; pass 1): ≤ 39 μm | Hagman reading (particle size) ([9]; pass 2): ≤ 30 μm | Hagman reading (particle size) ([9]; pass 3): ≤ 26 μm | Hagman reading (particle size) ([9]; pass 4): ≤ 14 μm | Hagman reading (particle size) ([9]; pass 5): ≤ 12 μm | Hagman reading (particle size) ([9]; pass 6): ≤ 10 μm | viscosity of TiO2 dispersions (in words) [7]: much lower viscosity | Viscosity reading of dispersion ([7]; pass 1): 6552 cps | Viscosity reading of dispersion ([7]; pass 2): 7176 cps | Viscosity reading of dispersion ([7]; pass 3): 7800 cps | Viscosity reading of dispersion ([7]; pass 4): 7332 cps | Viscosity reading of dispersion ([7]; pass 5): 7176 cps | Viscosity reading of dispersion ([7]; pass 6): 6786 cps | Viscosity reading of dispersion ([10]; pass 1): > 15,600 cps | Viscosity reading of dispersion ([10]; pass 2): > 15,600 cps | Viscosity reading of dispersion ([10]; pass 3): > 15,600 cps | Viscosity reading of dispersion ([10]; pass 4): > 15,600 cps | Viscosity reading of dispersion ([10]; pass 5): > 15,600 cps | Viscosity reading of dispersion ([10]; pass 6): > 15,600 cps | GREASINESS/OILINESS [4]: 4 | OVERALL TACTILITY [4]: 3 | SPREADABILITY [4]: 4 | TACK [4]: 2 | miscibility with Parsol 1789 [11]: miscible | miscibility with benzophenone-3 [11]: miscible

CCCCCCCCCCCCCCCCOC(=O)CCCCCCCC=CCC(CCCCCC)OC(=O)c1ccccc1 (stereo not drawn) [BCR, benzoic acid ester of cetyl-ricinoleate]
S.G. (specific gravity) ([5]; 25° C.): 0.915 | VISCOSITY [5]: 80 cps | Sunscreen solubility (Benzophenone-3) [2, 12]: + | Sunscreen solubility (Benzophenone-3) [2, 15]: + | Sunscreen solubility (Benzophenone-3) [2, 13]: + | Sunscreen solubility (Benzophenone-3) [2, 14]: + | Sunscreen solubility (Parsol 1789) [3, 12]: + | Sunscreen solubility (Parsol 1789) [3, 15]: + | Sunscreen solubility (Parsol 1789) [3, 13]: + | Sunscreen solubility (Parsol 1789) [3, 14]: + | Hagman reading (particle size) ([6]; pass 1): ≤ 30 μm | Hagman reading (particle size) ([6]; pass 2): ≤ 30 μm | Hagman reading (particle size) ([6]; pass 3): ≤ 21 μm | Hagman reading (particle size) ([6]; pass 4): ≤ 18 μm | Hagman reading (particle size) ([6]; pass 5): ≤ 10 μm | Hagman reading (particle size) ([6]; pass 6): ≤ 10 μm | particle size reduction vs precursor CR (in words) ([6]; third pass and onwards): better reduction of particle size | Hagman reading (particle size) ([8]; pass 1): ≤ 53 μm | Hagman reading (particle size) ([8]; pass 2): ≤ 50 μm | Hagman reading (particle size) ([8]; pass 3): ≤ 46 μm | Hagman reading (particle size) ([8]; pass 4): ≤ 33 μm | Hagman reading (particle size) ([8]; pass 5): ≤ 30 μm | Hagman reading (particle size) ([8]; pass 6): ≤ 27 μm | Hagman reading (particle size) ([9]; pass 1): ≤ 34 μm | Hagman reading (particle size) ([9]; pass 2): ≤ 26 μm | Hagman reading (particle size) ([9]; pass 3): ≤ 20 μm | Hagman reading (particle size) ([9]; pass 4): ≤ 12 μm | Hagman reading (particle size) ([9]; pass 5): ≤ 8 μm | Hagman reading (particle size) ([9]; pass 6): ≤ 6 μm | viscosity of TiO2 dispersions (in words) [7]: much lower viscosity | Viscosity reading of dispersion ([7]; pass 1): 1794 cps | Viscosity reading of dispersion ([7]; pass 2): 1872 cps | Viscosity reading of dispersion ([7]; pass 3): 2028 cps | Viscosity reading of dispersion ([7]; pass 4): 2028 cps | Viscosity reading of dispersion ([7]; pass 5): 2028 cps | Viscosity reading of dispersion ([7]; pass 6): 1950 cps | viscosity of Red No. 21 dispersion (in words) [10]: excellent low viscosity dispersion | Viscosity reading of dispersion ([10]; pass 1): 4602 cps | Viscosity reading of dispersion ([10]; pass 2): 4368 cps | Viscosity reading of dispersion ([10]; pass 3): 4212 cps | Viscosity reading of dispersion ([10]; pass 4): 4134 cps | Viscosity reading of dispersion ([10]; pass 5): 4290 cps | Viscosity reading of dispersion ([10]; pass 6): 4368 cps | GREASINESS/OILINESS [4]: 4 | OVERALL TACTILITY [4]: 4 | SPREADABILITY [4]: 3 | TACK [4]: 3

CCCCCCCCCCCCCCCCOC(=O)CCCCCCCC=CCC(CCCCCC)OC(=O)c1ccccc1 (stereo not drawn) [Example 8, Benzoate Ester of Cetyl Ricinoleate]
Color [1]: 4
